{"source": "ChEMBL document CHEMBL5634148", "about": "“Synthesis and evaluation of novel pleuromutilin derivatives targeting the 50S ribosomal subunit for antibacterial ability” (Eur J Med Chem, 2023)", "key": {"Streptococcus agalactiae": {"system": "Streptococcus agalactiae", "test": "Antibacterial activity against Streptococcus agalactiae assessed as bacterial growth inhibition incubated for 18 to 24 hrs by NCCLS based assay", "assay_type": "functional", "details": "time 18-24 hrs"}, "[1]": {"test": "Toxicity in Wistar rat assessed as food intake at 2000 mg/kg, po measured for 14 days", "assay_type": "organism-based", "details": "in vivo, 336 h, time 14 day"}, "Staphylococcus aureus [2]": {"system": "Staphylococcus aureus", "test": "Drug resistance against Staphylococcus aureus assessed as fold increase in MIC measured after 21 passages relative to control", "assay_type": "functional"}, "Staphylococcus aureus [3]": {"system": "Staphylococcus aureus", "test": "Antibacterial activity against methicillin-resistant Staphylococcus aureus infected in neutropenic Balb/c mouse model assessed as thickening of alveolar walls in lungs at 40 mg/kg, iv measured after 5 days", "assay_type": "functional, organism-based", "details": "time 5.0 day"}, "Escherichia coli": {"system": "Escherichia coli", "test": "Antibacterial activity against Escherichia coli CICC 10389 assessed as bacterial growth inhibition incubated for 18 to 24 hrs by NCCLS based assay", "assay_type": "functional", "details": "time 18-24 hrs"}, "[4]": {"test": "Toxicity in Wistar rat assessed as absolute spleen weight at 2000 mg/kg, po measured after 14 days (reference value: 0.61 +/- 0.05 g)", "assay_type": "organism-based", "details": "in vivo, 336 h, time 14 day"}, "[5]": {"test": "Toxicity in Wistar rat assessed as relative kidneys weight at 2000 mg/kg, po measured after 14 days (reference value: 0.91 +/- 0.18 %)", "assay_type": "organism-based", "details": "in vivo, 336 h, time 14 day"}, "Pasteurella multocida": {"system": "Pasteurella multocida", "test": "Antibacterial activity against Pasteurella multocida CVCC 1659 assessed as bacterial growth inhibition incubated for 18 to 24 hrs by NCCLS based assay", "assay_type": "functional", "details": "time 18-24 hrs"}, "Staphylococcus aureus [6]": {"system": "Staphylococcus aureus", "test": "Antibacterial activity against Staphylococcus aureus ATCC 25923 assessed as bacterial growth inhibition incubated for 18 to 24 hrs by NCCLS based assay", "assay_type": "functional", "details": "time 18-24 hrs"}, "[7]": {"test": "Toxicity in Wistar rat assessed as relative uterus weight at 2000 mg/kg, po measured after 14 days (reference value: 0.45 +/- 0.03 %)", "assay_type": "organism-based", "details": "in vivo, 336 h, time 14 day"}, "[8]": {"test": "Toxicity in Wistar rat assessed as congestion in hepatic central vein at 2000 mg/kg, po measured for 14 days by H and E staining based analysis", "assay_type": "organism-based", "details": "in vivo, 336 h, time 14 day"}, "[9]": {"test": "Cytotoxicity against human HepG2 cells assessed as cell viability at 200 uM incubated for 6 hrs by CCK8 assay relative to control", "assay_type": "toxicity, cell-based", "details": "read-out: Activity"}, "[10]": {"test": "Toxicity in Wistar rat assessed as fatality at 2000 mg/kg, po measured for 7 days", "assay_type": "organism-based", "details": "in vivo, 168 h, time 7 day"}, "Staphylococcus aureus [11]": {"system": "Staphylococcus aureus", "test": "Antibacterial activity against methicillin-resistant Staphylococcus aureus infected in neutropenic Balb/c mouse model assessed as reduction in bacterial load in liver at 40 mg/kg, iv measured after 5 days", "assay_type": "functional, organism-based", "details": "time 5.0 day"}, "[12]": {"test": "Toxicity in Wistar rat assessed as relative liver weight at 2000 mg/kg, po measured after 14 days (reference value: 4.37 +/- 0.18 %)", "assay_type": "organism-based", "details": "in vivo, 336 h, time 14 day"}, "Staphylococcus aureus [13]": {"system": "Staphylococcus aureus", "test": "Antibacterial activity against methicillin-resistant Staphylococcus aureus ATCC 29213 assessed as reduction in bacterial count at 6 times MIC incubated for 24 hrs by time kill assay", "assay_type": "functional"}, "Enterococcus faecalis": {"system": "Enterococcus faecalis", "test": "Antibacterial activity against Enterococcus faecalis assessed as bacterial growth inhibition incubated for 18 to 24 hrs by NCCLS based assay", "assay_type": "functional", "details": "time 18-24 hrs"}, "[14]": {"test": "Toxicity in neutropenic Balb/c mouse model infected with methicillin-resistant Staphylococcus aureus assessed as animal survival at 40 mg/kg, iv measured for 7 days", "assay_type": "organism-based", "details": "in vivo, 168 h, time 7 day"}, "[15]": {"test": "Toxicity in Wistar rat assessed as absolute uterus weight at 2000 mg/kg, po measured after 14 days (reference value: 0.87 +/- 0.06 g)", "assay_type": "organism-based", "details": "in vivo, 336 h, time 14 day"}, "Staphylococcus aureus [16]": {"system": "Staphylococcus aureus", "test": "Bactericidal activity against methicillin-resistant Staphylococcus aureus ATCC 29213 incubated for 24 hrs by time kill assay", "assay_type": "functional, organism-based"}, "[17]": {"test": "Toxicity in po-dosed Wistar rat measured for 14 days by H and E staining based analysis", "details": "in vivo, time 14 day"}, "[18]": {"test": "Toxicity in Wistar rat assessed as necrosis of alveolar epithelial cells in lungs at 2000 mg/kg, po measured for 14 days by H and E staining based analysis", "assay_type": "organism-based", "details": "in vivo, 336 h, time 14 day"}, "Staphylococcus aureus [19]": {"system": "Staphylococcus aureus", "test": "Antibacterial activity against Staphylococcus aureus assessed as reduction in bacterial count at 1 to 6 times MIC incubated for 24 hrs by time kill assay", "assay_type": "functional"}, "[20]": {"test": "Toxicity in Wistar rat assessed as hepatocyte fatty degeneration at 2000 mg/kg, po measured for 14 days by H and E staining based analysis", "assay_type": "organism-based", "details": "hepatocytes, 336 h, time 14 day"}, "[21]": {"test": "Toxicity in Wistar rat assessed as trembling at 2000 mg/kg, po measured for 24 hrs", "assay_type": "organism-based", "details": "in vivo"}, "[22]": {"test": "Toxicity in Wistar rat assessed as proliferation of oval cells in liver at 2000 mg/kg, po measured for 14 days by H and E staining based analysis", "assay_type": "organism-based", "details": "in vivo, 336 h, time 14 day"}, "[23]": {"test": "Toxicity in Wistar rat assessed as capillary congestion in lungs at 2000 mg/kg, po measured for 14 days by H and E staining based analysis", "assay_type": "organism-based", "details": "in vivo, 336 h, time 14 day"}, "[24]": {"test": "Toxicity in Wistar rat assessed as water consumption at 2000 mg/kg, po measured for 14 days", "assay_type": "organism-based", "details": "in vivo, 336 h, time 14 day"}, "Staphylococcus aureus [25]": {"system": "Staphylococcus aureus", "test": "Antibacterial activity against methicillin-resistant Staphylococcus aureus infected in neutropenic Balb/c mouse model assessed as reduction in bacterial load in lungs at 40 mg/kg, iv measured after 5 days", "assay_type": "functional", "details": "time 5 day"}, "[26]": {"test": "Toxicity in Wistar rat assessed as absolute kidneys weight at 2000 mg/kg, po measured after 14 days (reference value: 1.77 +/- 0.16 g)", "assay_type": "organism-based", "details": "in vivo, 336 h, time 14 day"}, "Staphylococcus aureus [27]": {"system": "Staphylococcus aureus", "test": "Bactericidal activity against Staphylococcus aureus incubated for 24 hrs by time kill assay", "assay_type": "functional, organism-based"}, "[28]": {"test": "Cytotoxicity against human HepG2 cells assessed as cell viability incubated for 6 hrs by CCK8 assay", "assay_type": "toxicity, cell-based"}, "[29]": {"test": "Toxicity in Wistar rat assessed as piloerection at 2000 mg/kg, po measured for 48 hrs", "assay_type": "organism-based", "details": "in vivo"}, "[30]": {"test": "Toxicity in Wistar rat assessed as piloerection at 2000 mg/kg, po measured for 24 hrs", "assay_type": "organism-based", "details": "in vivo"}, "[31]": {"test": "Toxicity in Wistar rat assessed as relative lungs weight at 2000 mg/kg, po measured after 14 days (reference value: 0.62 +/- 0.18 %)", "assay_type": "organism-based", "details": "in vivo, 336 h, time 14 day"}, "Staphylococcus aureus [32]": {"system": "Staphylococcus aureus", "test": "Antibacterial activity against methicillin-resistant Staphylococcus aureus infected in neutropenic Balb/c mouse model assessed as reduction in bacterial load in kidney at 40 mg/kg, iv measured after 5 days", "assay_type": "functional, organism-based", "details": "time 5.0 day"}, "Staphylococcus aureus [33]": {"system": "Staphylococcus aureus", "test": "Antibacterial activity against methicillin-resistant Staphylococcus aureus infected in neutropenic Balb/c mouse model assessed as reduction in inflammatory cell infiltration in lungs at 40 mg/kg, iv measured after 5 days", "assay_type": "functional, organism-based", "details": "time 5.0 day"}, "[34]": {"test": "Toxicity in Wistar rat assessed as physical activity at 2000 mg/kg, po measured for 48 hrs", "assay_type": "organism-based", "details": "in vivo"}, "Staphylococcus aureus [35]": {"system": "Staphylococcus aureus", "test": "Antibacterial activity against methicillin-resistant Staphylococcus aureus infected in neutropenic Balb/c mouse model assessed as reduction in bacterial load in lungs at 15 mg/kg, iv measured after 5 days", "assay_type": "functional", "details": "time 5 day"}, "[36]": {"test": "Toxicity in Wistar rat assessed as physical activity at 2000 mg/kg, po measured for 24 hrs", "assay_type": "organism-based", "details": "in vivo"}, "[37]": {"test": "Toxicity in Wistar rat assessed as body weight loss at 2000 mg/kg, po measured for 14 days", "assay_type": "organism-based", "details": "in vivo, 336 h, time 14 day"}, "[38]": {"test": "Toxicity in Wistar rat assessed as vascular congestion in lungs at 2000 mg/kg, po measured for 14 days by H and E staining based analysis", "assay_type": "organism-based", "details": "in vivo, 336 h, time 14 day"}, "[39]": {"test": "Toxicity in Wistar rat assessed as trembling at 2000 mg/kg, po measured for 48 hrs", "assay_type": "organism-based", "details": "in vivo"}}, "note": "Active and inactive are the calls of the source. The rule behind the calls is not given here.", "data": [{"smiles": "C=C[C@]1(C)C[C@@H](OC(=O)CSc2ncnc(N(C)C)n2)[C@]2(C)[C@H](C)CC[C@]3(CCC(=O)[C@H]32)[C@@H](C)[C@@H]1O", "values": [{"measurement": "MIC", "setting": "Streptococcus agalactiae", "value": 0.063, "unit": "µg/mL"}, {"measurement": "Activity", "setting": "[1]", "value": "Toxic"}, {"measurement": "fold change (FC)", "setting": "Staphylococcus aureus [2]", "value": 16}, {"measurement": "Activity", "setting": "Staphylococcus aureus [3]", "value": "Active"}, {"measurement": "MIC", "setting": "Escherichia coli", "value": "≥ 64", "unit": "µg/mL"}, {"measurement": "Activity", "setting": "[4]", "value": 0.43, "unit": "g"}, {"measurement": "Activity", "setting": "[5]", "value": 0.74, "unit": "%"}, {"measurement": "MIC", "setting": "Pasteurella multocida", "value": "≥ 64", "unit": "µg/mL"}, {"measurement": "MIC", "setting": "Staphylococcus aureus [6]", "value": 0.031, "unit": "µg/mL"}, {"measurement": "Activity", "setting": "[7]", "value": 0.29, "unit": "%"}, {"measurement": "Activity", "setting": "[8]", "value": "Toxic"}, {"measurement": "viability at 6 h, 200 µM", "setting": "[9]", "value": 60.2, "unit": "%"}, {"measurement": "Activity", "setting": "[10]", "value": "Non-Toxic"}, {"measurement": "Activity", "setting": "Staphylococcus aureus [11]", "value": "Active"}, {"measurement": "Activity", "setting": "[12]", "value": 3.99, "unit": "%"}, {"measurement": "log(activity)", "setting": "Staphylococcus aureus [13]", "value": 1.72}, {"measurement": "MIC", "setting": "Enterococcus faecalis", "value": 32, "unit": "µg/mL"}, {"measurement": "Activity", "setting": "[14]", "value": 70, "unit": "%"}, {"measurement": "Activity", "setting": "[15]", "value": 0.68, "unit": "g"}, {"measurement": "Activity", "setting": "Staphylococcus aureus [16]", "value": "Dose-Dependent Effect"}, {"measurement": "LD50 at 336 h", "setting": "[17]", "value": "> 2000", "unit": "mg/kg"}, {"measurement": "Activity", "setting": "[18]", "value": "Toxic"}, {"measurement": "log(activity)", "setting": "Staphylococcus aureus [19]", "value": 2.5}, {"measurement": "Activity", "setting": "[20]", "value": "Toxic"}, {"measurement": "Activity", "setting": "[21]", "value": "Toxic"}, {"measurement": "Activity", "setting": "[22]", "value": "Toxic"}, {"measurement": "Activity", "setting": "[23]", "value": "Toxic"}, {"measurement": "Activity", "setting": "[24]", "value": "Toxic"}, {"measurement": "Activity", "setting": "Staphylococcus aureus [25]", "value": 2.52, "unit": "log10CFU/ml"}, {"measurement": "Activity", "setting": "[26]", "value": 1.85, "unit": "g"}, {"measurement": "Activity", "setting": "Staphylococcus aureus [27]", "value": "Dose-Dependent Effect"}, {"measurement": "CC50 at 6 h", "setting": "[28]", "value": 84.6, "unit": "µM"}, {"measurement": "Activity", "setting": "[29]", "value": "Non-Toxic"}, {"measurement": "Activity", "setting": "[30]", "value": "Toxic"}, {"measurement": "Activity", "setting": "[31]", "value": 0.53, "unit": "%"}, {"measurement": "Activity", "setting": "Staphylococcus aureus [32]", "value": "Active"}, {"measurement": "Activity", "setting": "Staphylococcus aureus [33]", "value": "Active"}, {"measurement": "Activity", "setting": "[34]", "value": "Non-Toxic"}, {"measurement": "Activity", "setting": "Staphylococcus aureus [35]", "value": 1.82, "unit": "log10CFU/ml"}, {"measurement": "Activity", "setting": "[36]", "value": "Toxic"}, {"measurement": "Activity", "setting": "[37]", "value": "Toxic"}, {"measurement": "Activity", "setting": "[38]", "value": "Toxic"}, {"measurement": "Activity", "setting": "[39]", "value": "Non-Toxic"}]}]}
